Laboratory results taken from patent publication US20060223837A1 (priority 2005, published 2006).

Experiments:
[1] = target: T1, human VR1 (Homo sapiens, UniProt Q8NER1); experiment: Human VR1 [3H]RTX binding assay; conditions: for h Binding % I (1 μM): inhibition of [3H]RTX binding at 1 μM; for Ki: [3H]RTX binding, HEK293 membranes
T1 construct: expressed in transfected cells; host or cells: HEK293
Procedure, shortened: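 Membranes from human VR1-transfected HEK293 cells (~120 μg protein/ml) incubated with [3H]RTX in HEPES pH 7.4 with 0.25 mg/mL BSA, 37 C, 60 min. Bound counts by scintillation after α-acid glycoprotein and centrifugation; nonspecific defined with 200 nM unlabelled RTX. Ki from duplicate means.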

[2] = target: T1, human VR1; experiment: Human VR1 functional assay (FLIPR intracellular Ca2+); assay type: cell-based; conditions: for h % I (5 μM) / inhibition at 5 µM / inhibition at 1 µM: inhibition of capsaicin response; for IC50: antagonism of capsaicin-induced Ca2+ increase, read-out: h IC50; for inhibition at 5 µM: read-out: h % I (5 μM); for inhibition at 1 µM: read-out: h % I (1 μM)
Procedure, shortened: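 HEK293 cells expressing human VR1, loaded with Calcium 3 dye, were exposed to test compounds for 5 min while FLIPR recorded intracellular Ca2+, then challenged with capsaicin at ~80% maximal response ([…]). EC50 or IC50 came from dose-response curves on quadruplicate-well means.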

T1 sequence (Q8NER1 whole entry): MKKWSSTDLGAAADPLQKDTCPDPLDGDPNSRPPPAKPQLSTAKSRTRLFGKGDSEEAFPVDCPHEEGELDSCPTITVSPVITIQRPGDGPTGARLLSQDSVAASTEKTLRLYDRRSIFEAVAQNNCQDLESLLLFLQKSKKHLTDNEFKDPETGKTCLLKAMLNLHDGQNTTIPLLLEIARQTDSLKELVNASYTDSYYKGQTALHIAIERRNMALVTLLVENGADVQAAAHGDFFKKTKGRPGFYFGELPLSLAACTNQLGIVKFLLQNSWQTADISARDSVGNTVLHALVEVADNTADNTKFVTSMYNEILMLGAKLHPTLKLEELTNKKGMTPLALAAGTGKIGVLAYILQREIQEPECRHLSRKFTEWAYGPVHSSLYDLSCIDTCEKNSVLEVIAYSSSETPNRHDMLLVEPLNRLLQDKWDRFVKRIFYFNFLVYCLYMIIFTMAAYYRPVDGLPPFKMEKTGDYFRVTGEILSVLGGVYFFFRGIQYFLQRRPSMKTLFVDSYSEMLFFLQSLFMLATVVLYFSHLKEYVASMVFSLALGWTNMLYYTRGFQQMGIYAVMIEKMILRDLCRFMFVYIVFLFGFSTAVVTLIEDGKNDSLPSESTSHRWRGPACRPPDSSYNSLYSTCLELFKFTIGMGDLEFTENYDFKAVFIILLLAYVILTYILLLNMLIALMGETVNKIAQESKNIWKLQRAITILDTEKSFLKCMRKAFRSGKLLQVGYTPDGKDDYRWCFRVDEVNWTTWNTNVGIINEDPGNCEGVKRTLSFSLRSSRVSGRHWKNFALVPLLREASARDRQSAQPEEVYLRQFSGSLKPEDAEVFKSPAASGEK

| SMILES | h Binding % I (1 μM) [1] [%] | h % I (5 μM) [2] [%] | Ki [1] [nM] | IC50 [2] [nM] | inhibition at 5 µM [2] [%] | inhibition at 1 µM [2] [%] |
| --- | --- | --- | --- | --- | --- | --- |
| CC(C)(C)c1ccc(CCC(=O)Nc2ccc(-c3nn[nH]n3)cc2)cc1 [Cpd 199] | 3 | 19 |  |  |  |  |
| CC1=NN(c2ccc(NC(=O)CCc3ccc(C(C)(C)C)cc3)cc2)C(=O)C1 [Cpd 201] | 1 | 57 |  |  |  |  |
| CC(C)(C)c1ccc(CCC(=O)Nc2cnc(-n3ccnc3)c(C(F)(F)F)c2)cc1 [Cpd 202, 3-(4-tert-Butyl-phenyl)-N-(6-imidazol-1-yl-5-trifluoromethyl-pyridin-3-yl)-propionamide] |  |  | 212 | 30.1 | 100 |  |
| Cc1cc(NC(=O)CCc2ccc(C(F)(F)F)cc2)cnc1-n1cnc(Cl)c1Cl [Cpd 203, N-[6-(4,5-Dichloro-imidazol-1-yl)-5-methyl-pyridin-3-yl]-3-(4-trifluoromethyl-phenyl)-propionamide] |  |  | 34 | 35.2 | 100 | 99 |
| Cc1cn(-c2ccc(NC(=O)CCc3ccc(C(F)(F)F)cc3)cc2C(F)(F)F)cn1 [Cpd 204, N-[4-(4-Methyl-imidazol-1-yl)-3-trifluoromethyl-phenyl]-3-(4-trifluoromethyl-phenyl)-propionamide] |  |  | 31.9 | 37 |  | 100 |
| Cc1cn(-c2ccc(NC(=O)/C=C/c3ccc(S(=O)(=O)C(F)(F)F)cc3)cc2C(F)(F)F)cn1 [Cpd 205, trans-N-[4-(4-Methyl-imidazol-1-yl)-3-trifluoromethyl-phenyl]-3-(4-trifluoromethanesulfonyl-phenyl)-acrylamide] |  |  | 44.4 | 38 |  | 100 |
| O=C(CCc1ccc(C(F)(F)F)cc1)Nc1ccc(-c2cccc(O)c2)c(C(F)(F)F)c1 [Cpd 206] |  |  | 64.6 | 39.4 | 100 |  |
| O=C(CCc1ccc(C(F)(F)F)cc1)Nc1ccc(-n2ccnc2)c(C(F)(F)F)c1 [Cpd 207] |  |  | 47.8 | 40.2 | 100 | 95 |
| Cc1cn(-c2ccc(NC(=O)/C=C/c3ccc(SC(F)(F)F)cc3)cc2C(F)(F)F)cn1 [Cpd 208] |  |  | 88.7 | 41 |  | 100 |
| O=C(CCc1ccc(C(F)(F)F)cc1)Nc1cnc(-c2cccc(O)c2)c(C(F)(F)F)c1 [Cpd 210, N-[6-(3-Hydroxy-phenyl)-5-trifluoromethyl-pyridin-3-yl]-3-(4-trifluoromethyl-phenyl)-propionamide] |  |  | 54.5 | 57 | 100 |  |
| CC(C)(C)c1ccc(CCC(=O)Nc2ccc(-n3cnc(Cl)c3Cl)cc2)cc1 [Cpd 211] |  |  | 22.2 | 60 | 99 |  |
| CC(C)(C)c1ccc(CCC(=O)Nc2ccc(-n3cnc(Cl)c3Cl)c(C(F)(F)F)c2)cc1 [Cpd 212, 3-(4-tert-Butyl-phenyl)-N-[4-(4,5-dichloro-imidazol-1-yl)-3-trifluoromethyl-phenyl]-propionamide] |  |  | 5.9 | 62.7 | 100 | 101 |
| Cc1cc(NC(=O)CCc2ccc(C(C)(C)C)cc2)cnc1-n1ccnc1 [Cpd 214] |  |  | 536 | 73.2 | 91 |  |
| Cc1cc(NC(=O)CCc2ccc(C(C)(C)C)cc2)cnc1-n1cnc(Cl)c1Cl [Cpd 215] |  |  | 7.4 | 74.3 | 100 |  |
| CC(=O)Nc1cccc(-c2ncc(NC(=O)CCc3ccc(C(C)(C)C)cc3)cc2C)c1 [Cpd 216] |  |  | 70.4 | 76.2 | 99 |  |
| O=C(/C=C/c1ccc(S(=O)(=O)C(F)(F)F)cc1)Nc1ccc(-n2cnc(Cl)c2Cl)c(C(F)(F)F)c1 [Cpd 217] |  |  | 47.7 | 87 |  | 101 |
| O=C(CCc1ccc(C(F)(F)F)cc1)Nc1ccc(-n2cnc(Cl)c2Cl)c(C(F)(F)F)c1 [Cpd 218] |  |  | 19.9 | 97.2 | 101 |  |
| O=C(CCc1ccc(C(F)(F)F)cc1)Nc1ccc(-c2ccncc2)c(C(F)(F)F)c1 [Cpd 220] |  |  | 99.8 | 121 | 100 |  |
| O=C(CCc1ccc(C(F)(F)F)cc1)Nc1cnc(-c2ccc(O)cc2)c(C(F)(F)F)c1 [Cpd 221] |  |  | 57.8 | 127 | 100 |  |
| O=C(CCc1ccc(C(F)(F)F)cc1)Nc1ccc(-c2ccc(CO)cc2)c(C(F)(F)F)c1 [Cpd 223] |  | 100 | 82.6 | 142 |  |  |
| CC(C)(C)c1ccc(CCC(=O)Nc2cnc(-n3cnc(Cl)c3Cl)c(C(F)(F)F)c2)cc1 [Cpd 224] |  |  | 18.4 | 147 | 101 |  |
| O=C(CCc1ccc(C(F)(F)F)cc1)Nc1cnc(-c2ccc(CO)cc2)c(C(F)(F)F)c1 [Cpd 225] |  |  | 162 | 152 | 100 |  |

| SMILES | h Binding % I (1 μM) [1] [%] | h % I (5 μM) [2] [%] | Ki [1] [nM] | IC50 [2] [nM] | inhibition at 5 µM [2] [%] | inhibition at 1 µM [2] [%] |
| --- | --- | --- | --- | --- | --- | --- |
| Cc1cn(-c2ncc(NC(=O)CCc3ccc(C(F)(F)F)cc3)cc2C)cn1 [Cpd 226] |  |  | 761 | 164 |  | 83 |
| O=C(CCc1ccc(C(F)(F)F)cc1)Nc1ccc(-n2cnc(Cl)c2)c(C(F)(F)F)c1 [Cpd 227, N-[4-(4-Chloro-imidazol-1-yl)-3-trifluoromethyl-phenyl]-3-(4-trifluoromethyl-phenyl)-propionamide] |  |  | 90.8 | 168 |  | 100 |
| O=C(/C=C/c1ccc(SC(F)(F)F)cc1)Nc1ccc(-n2cnc(Cl)c2Cl)c(C(F)(F)F)c1 [Cpd 228] |  |  | 41.6 | 171 |  | 92 |
| O=C(CCc1ccc(C(F)(F)F)cc1)Nc1ccc(-c2ccc(O)cc2)c(C(F)(F)F)c1 [Cpd 229] |  |  | 99.2 | 195 | 100 |  |
| O=C(CCc1ccc(Cl)cc1)Nc1ccc(-c2ccncc2)c(C(F)(F)F)c1 [Cpd 230] |  |  | 1020 | 202 | 101 |  |
| O=C(CCc1ccc(Cl)cc1)Nc1ccc(-n2cnc(Cl)c2Cl)c(C(F)(F)F)c1 [Cpd 231] |  |  | 26.2 | 240 |  | 90 |
| Cc1cc(NC(=O)CCc2ccc(N(C)C3CCCCC3)cc2)cnc1-n1cnc(Cl)c1Cl [Cpd 232] |  |  | 80 | 249 |  | 99 |
| Cc1cn(-c2ccc(NC(=O)CCc3ccc(C(F)(F)F)cn3)cc2C(F)(F)F)cn1 [Cpd 233, N-[4-(4-Methyl-imidazol-1-yl)-3-trifluoromethyl-phenyl]-3-(5-trifluoromethyl-pyridin-2-yl)-propionamide] |  |  | 1000 | 259 |  | 98 |
| Cc1cc(NC(=O)CCc2ccc(Cl)cc2)cnc1-n1cnc(Cl)c1Cl [Cpd 234] |  |  | 85.5 | 290 |  | 88 |
| O=C(CCc1ccc(C(F)(F)F)cc1)Nc1cnc(-n2ccnc2)c(C(F)(F)F)c1 [Cpd 240] |  |  | 3850 | 379 | 101 |  |
| Cc1cc(NC(=O)/C=C/c2ccc(N(C)C3CCCCC3)cc2)cnc1-n1cnc(Cl)c1Cl [Cpd 241, trans-3-[4-(Cyclohexyl-methyl-amino)-phenyl]-N-[6-(4,5-dichloro-imidazol-1-yl)-5-methyl-pyridin-3-yl]-acrylamide] |  |  | 79.8 | 396 |  | 92 |
| O=C(CCc1ccc(Cl)cc1)Nc1ccc(-n2ccnc2)c(C(F)(F)F)c1 [Cpd 242] |  |  | 2110 | 400 |  | 76 |
| O=C(CCc1ccc(C(F)(F)F)cc1)Nc1ccc(C2=NOS(=O)N2)c(C(F)(F)F)c1 (centres unmarked) [Cpd 245, N-[4-(2-Oxo-2,3-dihydro-2λ^4-[1,2,3,5]oxathiadiazol-4-yl)-3-trifluoromethyl-phenyl]-3-(4-trifluoromethyl-phenyl)-propionamide] |  |  | 974 | 491 | 9 | 70 |
| Cc1cc(NC(=O)CCc2ccc(C(C)(C)C)cc2)cnc1-c1cccc(C#N)c1 [Cpd 246] |  |  | 371 | 543 | 105 |  |
| O=C(CCc1ccc(C(F)(F)F)cc1)Nc1ccc(-c2ccc(CO)cc2)c(C(F)(F)F)c1 [Cpd 250] |  |  | 199 | 718 | 100 |  |
| O=C(CCc1ccc(C(F)(F)F)cc1)Nc1cnc(-n2cnc(Cl)c2Cl)c(C(F)(F)F)c1 [Cpd 251] |  |  | 134 | 724 | 101 |  |
| O=C(CCc1ccccc1)Nc1ccc(-c2ccncc2)c(C(F)(F)F)c1 [Cpd 252] |  |  | 5350 | 896 | 100 |  |
| O=C(CCc1ccc(C(F)(F)F)cc1)Nc1ccc(-n2cnc3ccccc32)c(C(F)(F)F)c1 [Cpd 253] |  |  | 44.3 | 952 |  | 52 |
| O=C(CCc1ccc(C(F)(F)F)cc1)Nc1ccc(-c2ccnc(F)c2)c(C(F)(F)F)c1 [Cpd 254] |  |  | 293 | 995 | 98 |  |
| O=C(CCc1ccc(C(F)(F)F)cc1)Nc1cnc(-c2ccncc2)c(C(F)(F)F)c1 [Cpd 255] |  |  | 329 |  | 100 |  |
| O=C(CCc1ccc(C(F)(F)F)cc1)Nc1ccc(-c2cccnc2F)c(C(F)(F)F)c1 [Cpd 258] |  |  | 500 |  | 93 |  |
| Cc1cc(NC(=O)CCc2ccc(C(C)(C)C)cc2)cnc1-c1cccc([N+](=O)[O-])c1 [Cpd 260] |  |  | 391 |  | 93 |  |
